The test system of series [1] is SDH activity of F. graminearum mitochondrial SQR (complex II). In kind it is biochemical, Fusarium graminearum. Particulars: absorbance 600 nm, 25 °C.
The subject of the next series is yeast strain Y2HGold. In words: Bait toxicity test in yeast. Particulars: pGBKT7::Mtk vs pGBKT7 empty vector, growth on SDO/–Trp plates; data not shown. In kind it is cell-based, Saccharomyces cerevisiae.
In series [2] the test system is Blumeria graminis f. sp. hordei. Particulars: cited from earlier work. The source says:
(§1) Insects are well protected against pathogens by an immunity-related arsenal of effector molecules including antimicrobial peptides (AMPs). Some AMPs are active against a broad spectrum of microbes, whereas the activity of others is restricted to certain types of bacteria or fungi. Insects produce a large number of antifungal peptides to protect them against fungal pathogens and parasites, and these peptides often interact with intracellular targets to inhibit key physiological processes such as DNA and protein synthesis, cell cycle progression and metabolic activity[1]–[3]. AMPs therefore offe ...

Another series concerns Piriformospora indica. To be noted: cited from earlier work.
Text: as §1

Another series concerns SdhB. In kind it is binding, Fusarium graminearum.
Series [3] relates to Fusarium graminearum. Particulars: read-out: IC50 against F. graminearum; cited from earlier work.
Series [4] has as its system Fusarium graminearum. To be noted: in vivo; cited from earlier work.
The test system of series [5] is SDH activity of P. indica mitochondrial SQR (complex II). It counts as biochemical, Piriformospora indica.
Series [6] relates to β(1,3)-glucanosyltransferase Gel1. To be noted: cited from earlier work.

Entries after “also recorded” stand apart in the source; their conditions may differ.

Broadly, the IC50 is the point on the concentration scale where inhibition reaches its midpoint.

As for “metchnikowin (HRHQGPIFDTRPSPFNPNQPRPGPIY; Metchnikowin synthetic; UniProt Q24395 27-52, looked up) [Mtk, 26-residue proline-rich linear antifungal peptide from Drosophila melanogaster; synthetic Mtk from Pepmic used in SDH assay]”, the “reduction in mitochondrial SDH activity, significance by concentration” value in series [1] (Mtk 2, 1, 0.5, 0.25, 0.12 and 0.06 µM, all concentrations except the lowest, 30 min, vs control without Mtk, means of three independent experiments) was “All concentrations except the lowest caused significant reductions”. In series [1] (synthetic Mtk, tested at 0.06, 0.12, 0.25, 0.5, 1 and 2 µM, isolated mitochondria, DCIP colorimetric, kinetic 30 min, relative to control (0 µM peptide = 100%), mean of three independent experiments, in triplicate), the “maximal inhibition of mitochondrial SDH activity” value is “up to 52%”. Further, in the series with yeast strain Y2HGold, the “toxicity towards yeast cells” value was “not independently toxic”. The “antifungal activity when expressed in barley” value is “acts specifically against” in [2], “inactive” in the series with Piriformospora indica and “acts specifically against” with Fusarium graminearum [4]. In addition, the “YFP fluorescence of Mtk constructs without a fusion partner (auto-activation)” value with SdhB (Mtk constructs with YFPCempty or YFPNempty, cytoplasm and nucleus) was “produced YFP fluorescence in both the cytoplasm and nucleus”. Further, the “YFP fluorescence on co-expression of Mtk and SdhB” value in the series with SdhB (Nicotiana benthamiana leaves, 3 days after injection, Mtk and SdhB YFP fusions) is given as “did not result in detectable YFP fluorescence”. Moreover, the IC50 in the series on Fusarium graminearum [3] was 1000 nM. The “reduction in mitochondrial SDH activity” value in [5] is on record as “unaffected; also recorded: no reduction was observed; also recorded: did not inhibit”. Also, the “interference with F. graminearum cell wall biosynthesis by targeting Gel1” value in series [6] is given as “interferes with F. graminearum cell wall biosynthesis”.
